Measurements from patent publication EP1276895B1, “METHOD FOR THE IDENTIFICATION OF ACTIVE SITE PROTEASE INACTIVATORS” (THE UNIVERSITY OF GEORGIA RESEARCH FOUNDATION, INC., priority 2000, dated 2001).
“And” between values parts separate entries of the source, which are not always exact repeats. Equal values may be shown once. Residues, ends and D or L forms follow the SMILES beside them. *: point of attachment. AFC = O=c1cc(C(F)(F)F)c2ccc(N*)cc2o1; Cbz = O=C(OCc1ccccc1)*; CH2F = FC*

Experiments:
Format in all cases: biochemical
Cathepsin D (aspartic) = Cathepsin D (aspartic) (Homo sapiens, UniProt P07339); test: Differential cleavage (selectivity) test, Cathepsin D; conditions: 0.15 M PBS pH 7.1, substrate Z-RGFFP-AFC; for inhibition at 0.0003 µM: inhibitor 3 X 10^-10 M
Description: (§1) In order to perform the assay, the vehicle (for Step VI) or inhibitor (for Step IX) were incubated with the appropriate substrate in the correct assay buffer and allowed to equilibrate. Subsequently, the protease was added, and the assay was allowed to incubate for an appropriate time. The concentrations used in this experiment were as follows: Vehicle was set up at 4 X 10^-5 M in final assay buffer; Inhibitor was set up at 3 X 10^-10 M in the final assay buffer. Accordingly, the dosages employed should be the minimal amount of vehicle or inhibitor necessary to induce inhibition. […] Substrates were set up based upon the preferred substrate for cleavage of the particular enzyme.
(§2) Positive controls were set up similarly as described for test controls, except that solvent was added in substitution for the inhibitor or vehicle (in a volume equal to the volume of inhibitor or vehicle addition). All of the inhibitors and vehicles could be dissolved in dimethylsulfoxide (DMSO), and therefore, this was the solvent of choice. Negative controls were set up by adding the inhibitor or vehicle and the preferred substrates in a tube without the protease. All potential non-proteolytic liberation of AFC was therefore controlled for in this tube (a feature which also insured stability of the AFC substrates, since these substrates will freely liberate AFC when unstable).
(§3) All controls were set up in triplicate, and experiments were repeated a minimum of five times.
(§4) Percent inhibition was calculated as: % Inhibition = ((AFC positive for ʺSIʺ-AFC negative for ʺSIʺ)-(AFC test-AFC negative for ʺSIʺ))/(AFC positive for ʺSIʺ-AFC negative for ʺSIʺ) × 100 [formula] In this preliminary test, we employed the following human-derived enzymes (with indicated mechanistic class): Cathepsin B (cysteine), Cathepsin L (cysteine), Cathepsin H (cysteine), Cathepsin D (aspartic) Trypsin (serine), the purified Taenia solium cysteine protease, and the Taenia solium crude mix. Cathepsin B was prepared in an assay buffer of 10 mM L-cysteine in 0.4 M Citrate buffer, pH 6.1, using Z-ARR-AFC as the cleavage substrate. Cathepsin L was prepared in an assay buffer of 10 mM L-cysteine in 0.4 M Citrate buffer, pH 5.5, using Z-FR-AFC as the cleavage substrate. Cathepsin H was prepared in an assay buffer of 10 mM L-cysteine in 0.15 M PBS buffer, pH 6.8, using L-R-AFC as the cleavage substrate. Cathepsin D was prepared in an assay buffer of 0.15 M PBS, pH 7.1, using Z-RGFFP-AFC as the cleavage substrate. Trypsin was prepared in an assay buffer of 0.15 M PBS, pH 8.0, supplemented with 100 mM CaCl2 and with Z-R-AFC as the cleavage substrate. Enzyme was incubated so that it was at least 50 times less than the concentration of substrate in order to insure saturating conditions.

Cathepsin L (cysteine) = Cathepsin L (cysteine) (Homo sapiens, UniProt P07711); test: Differential cleavage (selectivity) test, Cathepsin L; conditions: 0.4 M Citrate pH 5.5, 10 mM L-cysteine, substrate Z-FR-AFC
Description: as §1, §2, §3, §4

[1] = test system: purified Taenia solium cysteine protease; test: Competitor assay of low Vmax substrates (vehicles) against high Vmax substrate cocktails (Step III), purified protease; conditions: for inhibition in the presence of the 1.4% cocktail: 1.4% cocktail = Z-FR-AFC 1X10^-6M; for inhibition with the final cocktail (7.4%): 7.4% cocktail = Z-FR-AFC + Z-FAR-AFC + Z-AAK-AFC + AP-AFC + Z-VLR-AFC, 1X10^-6 M each, vehicle 8X10^-6 M; for Ki of vehicle: Dixon plot, preliminary, values not reported
Description: (We employed "Vmax" here although Kcat could also be used). Due to the lower number of substrates, a percentage was not chosen for the "BOTTOM %" " substrates. Alternately, all substrates which were not cleaved as determined by a value of 10 uM/hr or less, were chosen to be tested in this step for competitive ability. From this point forth, the term "vehicle" will represent low Vmax substrates that were capable of inhibiting cleavage of the percent cocktails. In this instance, we tested for "vehicles" which inhibited cleavage of the TOP 1.4% cocktail (they were delivered into the active site). Based upon our results from Step II, the top 1.4% cocktail was composed of Z-Phe-Arg-AFC, the highest cleaved substrate.
The experiment began with a competitor test between the noncleaved low Vmax substrates and the highest Vmax substrate, Z-Phe-Arg-AFC. Concentrations were varied between the low Vmax substrate and Z-Phe-Arg-AFC, as described above under "refinement of assay" until a relative inhibition profile was obtained.
The mixture was allowed to equilibrate for a period of 30 minutes. Finally, active purified enzyme was added to the tubes at a concentration which was always 50 times less than the concentration of the high and low Vmax substrates, in order to insure saturation conditions. This concentration varied from purification to purification and the amount added depended upon the yield and specific activity of the purified protease.
Positive controls were set up similarly as described for test controls, except that solvent was added in substitution for the low Vmax substrate (in a volume equal to the low Vmax volume addition). All of the substrates could be dissolved in dimethylsulfoxide (DMSO), and therefore, this was the solvent of choice. Negative controls were set up by adding the low Vmax and the high Vmax substrate in a tube without the protease. All potential non-proteolytic induced liberation of AFC was therefore controlled for in this tube (a feature which also insured stability of the AFC substrates, since these substrates will freely liberate AFC when unstable). A tube set will be established for this negative control.
All controls were set up in triplicate, and experiments repeated a minimum of five times. The assays were incubated at 37°C, for 18 hours overnight.
Percent inhibition was calculated as: %Inhibition =; ((AFC positive for"Y"-AFC negative for"Y")-(AFC test-AFC negative for"Y")X100)/(AFC positive for "Y"-AFC negative for "Y") [formula]
A 2.9% cocktail of the high Vmax substrates was made. This was composed of Z-FR-AFC and the second most cleaved substrate, Z-FAR-AFC. The vehicles promoted from the initial screenings above were again tested for competitive inhibition ability with the new cocktails. Their concentrations were set identically to those which were "fixed" in the previous protocols. In other words, 8X10^-6M of the vehicle was added to the culture tube with 1X10^-6 M of Z-FR-AFC and 1X10^-6 M of Z-FAR-AFC. Active protease was added last at a concentration that was 50 times less than the concentration of the high Vmax substrate (to ensure saturating conditions).
In similar experimental fashion, a 4.4%, 5.9%, and 7.4% cocktail were tested with each of the promising vehicles. Each percentage point represented an increase by one substrate. Each of the individual components in the cocktail were added at 1X10^-6 M each, to 8X10^-6 M of the vehicle. The composition of the cocktails was as follows: 4.4% cocktail: Z-FR-AFC, Z-FAR-AFC, and Z-AAK-AFC (third highest cleaved substrate); 5.9% cocktail: Z-FR-AFC, Z-FAR-AFC, Z-AAK-AFC, and AP-AFC (fourth highest cleaved substrate); 7.4% cocktail: […], Z-FAR-AFC, Z-AAK-AFC, AP-AFC, and Z-VLR-AFC. We stopped at this number of substrates in the cocktail, since confidence was obtained that inhibitory potential of vehicles could be "diluted out."
Finally, a manageable set of candidate vehicles was determined. […]

[2] = test system: purified Taenia solium cysteine protease; test: Differential cleavage (selectivity) test, T. solium protease
Description: as §1, §2, §3, §4

[3] = vehicle 8X10^-6M, purified protease
[4] = inhibitor 3 X 10^-10 M, 0.0003 µM

Sequence of Cathepsin L (cysteine) (P07711 114-333): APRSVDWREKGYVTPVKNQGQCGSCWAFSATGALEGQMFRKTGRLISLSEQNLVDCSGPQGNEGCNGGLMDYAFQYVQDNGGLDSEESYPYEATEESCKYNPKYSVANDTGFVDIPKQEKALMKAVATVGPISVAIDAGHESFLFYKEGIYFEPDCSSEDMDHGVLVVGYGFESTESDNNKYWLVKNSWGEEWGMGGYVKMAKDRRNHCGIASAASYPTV
Sequence of Cathepsin D (aspartic) (P07339 65-412): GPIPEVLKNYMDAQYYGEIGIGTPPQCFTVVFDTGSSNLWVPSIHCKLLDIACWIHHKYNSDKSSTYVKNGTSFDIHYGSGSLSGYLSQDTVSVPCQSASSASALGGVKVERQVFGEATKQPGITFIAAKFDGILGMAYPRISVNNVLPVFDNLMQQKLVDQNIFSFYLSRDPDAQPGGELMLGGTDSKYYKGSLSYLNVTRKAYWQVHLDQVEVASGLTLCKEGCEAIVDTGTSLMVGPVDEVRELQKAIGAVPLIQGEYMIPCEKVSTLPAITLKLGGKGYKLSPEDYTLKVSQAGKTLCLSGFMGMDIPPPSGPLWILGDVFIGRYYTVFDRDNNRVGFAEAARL

Row | Molecule | inhibition at 40 µM (Cathepsin D (aspartic); vehicle 4 X 10^-5 M) | inhibition at 40 µM (Cathepsin L (cysteine); vehicle 4 X 10^-5 M) | inhibition in the presence of the 1.4% cocktail [1, 3] | inhibition with the final cocktail (7.4%) ([1]; purified protease) | Ki of vehicle [1] | % Inhibition ([2]; vehicle 4 X 10^-5 M) | inhibition at 0.0003 µM (Cathepsin D (aspartic)) | inhibition at 0.0003 µM (Cathepsin L (cysteine); inhibitor 3 X 10^-10 M) | % Inhibition (Cathepsin L (cysteine); [4]) | % Inhibition ([2]; inhibitor 3 X 10^-10 M) | % Inhibition (Cathepsin D (aspartic); vehicle 4 X 10^-5 M, 40 µM) | % Inhibition (Cathepsin L (cysteine); vehicle 4 X 10^-5 M) | % Inhibition (Cathepsin L (cysteine); vehicle 4 X 10^-5 M, 40 µM) | V Value ([1]; purified protease, V = P * M, P = inhibition with first (1.4%) cocktail, M = inhibition with last (7.4%) cocktail, vehicle 8X10^-6M, each cocktail substrate 1X10^-6 M)
1 | CC(C)C[C@H](NC(=O)OCc1ccccc1)C(=O)N[C@@H](CC(C)C)C(=O)N[C@@H](CC(C)C)C(=O)Nc1ccc2c(C(F)(F)F)cc(=O)oc2c1 [Z-LLL-AFC, Z-Leu-Leu-Leu-AFC] (Cbz-Leu-Leu-Leu-{AFC}) | 0% | 0% | greater than 20% | ≥ 50% | lowest Ki values | 68% |  |  |  |  |  |  |  | 
2 | CC(C)C[C@H](NC(=O)[C@H](CC(C)C)NC(=O)[C@H](CC(C)C)NC(=O)OCc1ccccc1)C(=O)CF [Z-LLL-FMK, Z-Leu-Leu-Leu-fluoromethylketone] (Cbz-Leu-Leu-Leu-CH2F) |  |  |  |  |  |  | 0% | 50% | almost half of the inhibition of the Taenia solium cysteine protease | 98% |  |  |  | 
3 | CC(C)C[C@H](NC(=O)OCc1ccccc1)C(=O)N[C@@H](CC(C)C)C(=O)N[C@@H](Cc1ccc(O)cc1)C(=O)Nc1ccc2c(C(F)(F)F)cc(=O)oc2c1 [Z-LLY-AFC, Z-Leu-Leu-Tyr-AFC] (Cbz-Leu-Leu-Tyr-{AFC}) | 0% | 0% | greater than 20% | ≥ 50% | lowest Ki values | 70% |  |  |  |  |  |  |  | 
4 | CC(C)C[C@H](NC(=O)OCc1ccccc1)C(=O)N[C@@H](CC(C)C)C(=O)N[C@@H](Cc1ccc(O)cc1)C(=O)CF [Z-LLY-FMK, Z-Leu-Leu-Tyr-FMK] (Cbz-Leu-Leu-Tyr-CH2F) |  |  |  |  |  |  | 0% | 0% | did not inhibit cathepsin L at all | 62% |  |  |  | 
5 | Mu-Leu-Tyr-AFC [Mu-LY-AFC] |  |  |  | ≥ 50% | lowest Ki values | 75% |  |  |  |  | 0% | 25% | subtle inhibition | 0.452 and 0.450
